The text below walks through data of PMC3446820 (Journal of medicinal chemistry, 2012).

Molecules are shown by their SMILES. Read-outs that look alike come from different tables or passages of the source.

Data set [1] addresses T1, PfDHODH (Plasmodium falciparum, UniProt Q08210).
T1 sequence (Q08210 24-569): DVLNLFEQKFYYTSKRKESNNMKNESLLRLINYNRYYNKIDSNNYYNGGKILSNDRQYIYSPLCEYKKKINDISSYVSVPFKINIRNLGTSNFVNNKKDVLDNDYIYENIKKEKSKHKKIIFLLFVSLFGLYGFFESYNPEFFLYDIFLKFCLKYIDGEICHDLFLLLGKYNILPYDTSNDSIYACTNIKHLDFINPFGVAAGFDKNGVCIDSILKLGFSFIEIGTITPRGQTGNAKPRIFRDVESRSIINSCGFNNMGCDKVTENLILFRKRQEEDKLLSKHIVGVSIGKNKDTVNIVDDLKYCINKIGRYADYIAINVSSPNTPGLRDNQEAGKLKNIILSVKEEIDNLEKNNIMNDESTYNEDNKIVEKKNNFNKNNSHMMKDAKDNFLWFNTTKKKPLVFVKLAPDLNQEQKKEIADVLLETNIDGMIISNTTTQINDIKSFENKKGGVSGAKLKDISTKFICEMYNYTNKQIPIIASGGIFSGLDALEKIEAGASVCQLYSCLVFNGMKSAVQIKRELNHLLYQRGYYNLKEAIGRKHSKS
Kind of data set: biochemical. In kind it is biochemical. Conditions: for fold less potent against PfDHODH than the comparable triazolopyrimidine 1: reduction in binding affinity/activity relative to 1.

For data set [2] the following is noted: human liver microsomes; ref Gujjar et al. [29]; cited from earlier work.
The subject of data set [3] is P. berghei. To be noted: mice, oral dosing; ref [29]; cited from earlier work.
The test system of data set [4] is P. falciparum 3D7 cells. Conditions: read-out: EC50 (μM) Pf3D7; clone 3D7; ref [27],[29]; cited from earlier work.
Data set [5] has as its target hDHODH (Homo sapiens, UniProt Q02127). To be noted: cited from earlier work.
Data set [6] can be described thus: Mouse pharmacokinetics after single oral dose. It is filed as in vivo. To be noted: mice.
The target of data set [7] is PbDHODH (Plasmodium berghei, UniProt A0A509AEH5). The data set can be described thus: PbDHODH steady-state colorimetric DCIP enzyme assay. It is filed as biochemical. Conditions: relative to 2.
Sequence of PbDHODH (A0A509AEH5 132-517 limits assumed): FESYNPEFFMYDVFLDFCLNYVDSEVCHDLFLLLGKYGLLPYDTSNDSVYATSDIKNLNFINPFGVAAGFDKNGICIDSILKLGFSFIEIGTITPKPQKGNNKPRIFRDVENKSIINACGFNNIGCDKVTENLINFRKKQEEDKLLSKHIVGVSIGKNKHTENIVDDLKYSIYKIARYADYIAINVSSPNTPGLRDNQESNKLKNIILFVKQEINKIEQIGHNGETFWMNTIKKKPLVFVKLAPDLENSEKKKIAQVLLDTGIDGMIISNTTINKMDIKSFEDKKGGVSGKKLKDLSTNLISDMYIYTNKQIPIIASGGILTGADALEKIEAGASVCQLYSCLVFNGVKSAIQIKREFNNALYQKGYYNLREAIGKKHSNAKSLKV
Data set [8] is described as follows: In vitro metabolic stability in human liver microsomes. It is filed as in vitro ADME.
The test system of data set [9] is P. berghei. Kind of data set: P. berghei mouse in vivo efficacy model. Conditions: mice. Details: species or system Plasmodium berghei.
Data set [10] in a line: In vitro metabolic stability in mouse liver microsomes. In kind it is in vitro ADME.

Sequence of hDHODH (Q02127 whole entry): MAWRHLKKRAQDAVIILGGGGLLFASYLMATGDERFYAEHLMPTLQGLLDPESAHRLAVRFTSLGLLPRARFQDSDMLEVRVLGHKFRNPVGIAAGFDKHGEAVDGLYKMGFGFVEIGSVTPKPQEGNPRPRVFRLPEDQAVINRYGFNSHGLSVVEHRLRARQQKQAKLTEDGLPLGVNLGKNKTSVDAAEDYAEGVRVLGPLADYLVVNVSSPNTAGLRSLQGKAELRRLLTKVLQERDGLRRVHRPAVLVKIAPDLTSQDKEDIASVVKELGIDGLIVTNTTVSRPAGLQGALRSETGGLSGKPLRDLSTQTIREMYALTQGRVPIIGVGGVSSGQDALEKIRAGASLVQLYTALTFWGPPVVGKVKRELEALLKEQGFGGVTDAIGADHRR

Turning to `Cc1nc(Nc2ccc3ccccc3c2)c2nc[nH]c2n1` [Compound 9, 2-Methyl-N-(naphthalen-2-yl)-9H-purin-6-amine], the “fold less potent against PfDHODH than the comparable triazolopyrimidine 1” value (“fold less potent” for short) in data set [1] is ~ 9 fold.

As for `Cc1cc(Nc2ccc(C(F)(F)F)cc2)n2ncnc2n1` [Compound 2, 5-methyl-N-(4-(trifluoromethyl)phenyl)-[1,2,4]triazolo[1,5-a]pyrimidin-7-amine], the “Predicted EH” value in [2] is recorded as 0.29. For the same compound, in [3], the “in vivo efficacy in the P. berghei model (in words)” value is given as “able to suppress parasitemia”.

Consider `Cc1nc(Nc2ccc3ncccc3c2)c2nc[nH]c2n1` [Compound 14, N-(2-Methyl-9H-purin-6-yl)quinolin-6-amine], for which the IC50 in data set [1] was more than 25 µM.

Regarding `Cc1nc(Nc2ccc3ccccc3c2)c2cn[nH]c2n1` [Compound 10, 6-Methyl-N-(naphthalen-2-yl)-1H-pyrazolo[3,4-d]pyrimidin-4-amine], in [1], the IC50 is more than 100 µM and the “PfDHODH activity (in words)” value is on record as “inactivated”.

For the compound `Cc1cc(Nc2ccc3ccccc3c2)n2ccnc2n1` [Compound 6, 7-Methyl-N-(naphthalen-2-yl)imidazo[1,2-a]pyrimidin-5-amine], in data set [1], the “fold less potent” value is 3 fold.

`Cc1cc(Nc2ccc3ccccc3c2)n2ncnc2n1` [Compound 1, (5-methyl-[1,2,4]triazolo[1,5-a]pyrimidin-7-yl)naphthalene-2-ylamine]: the “in vivo efficacy in the P. berghei model (in words)” value in data set [3] is reported as “no anti-parasite activity”. Moreover, the EC50 in data set [4] was 0.076 µM. In data set [5] (read-out: IC50 (μM) hDHODH, ref [27],[29]), the IC50 was more than 100 µM. In addition, in data set [5] (ref [26]–[28]), the “activity against human DHODH (in words)” value is given as “without inhibiting human DHODH”.

On to `Cc1cc(NC(=O)c2ccc(C(F)(F)F)cc2)n2ncnc2n1` [Compound 5], for which, in data set [1], the IC50 was more than 100 µM and the “PfDHODH activity (in words)” value is “loss of activity”.

Consider `Cc1cc(Nc2ccc3ccccc3c2)n2ncnc2c1` [Compound 7, 7-Methyl-N-(naphthalen-2-yl)-[1,2,4]triazolo[1,5-a]pyridin-5-amine], for which the “fold less potent” value in [1] worked out at 100 fold.

For `Cc1cc(NC(=O)c2ccccc2)n2ncnc2n1` [Compound 4, N-(5-methyl-[1,2,4]triazolo[1,5-a]pyrimidin-7-yl)benzamide], in data set [1], the IC50 is more than 100 µM and the “PfDHODH activity (in words)” value is “loss of activity”.

Consider `Cc1cc(Nc2ccc(C(F)(F)F)cc2)n2ccnc2n1` [Compound 16, 7-Methyl-N-(4-(trifluoromethyl)phenyl)imidazo[1,2-a]pyrimidin-5-amine], for which, in data set [6] (10 mg/kg oral), the “adverse reactions following oral administration” value is “No adverse reactions were observed”. Besides, the peak plasma concentrations in data set [6] (single oral dose 10 mg/kg) turned out to be 3.9 µM. The “time plasma levels maintained above 1 μM” value in data set [6] (single oral dose 10 mg/kg) was “about 4 h”. For the same compound, the “fold more potent against PfDHODH than the equivalent triazolopyrimidine 2” value in data set [1] (relative to 2) is 4 fold. Also, the “fold better potency against PbDHODH than 2” value in data set [7] is 2 fold. For the same compound, the Putative metabolites entry in data set [8] (human liver microsomes) and in data set [10] (mouse liver microsomes) was “None detected” in each case. The “Predicted EH” value in data set [8] (human liver microsomes, predicted in vivo hepatic extraction ratio) is 0.21; in data set [10] (mouse liver microsomes, predicted in vivo hepatic extraction ratio) it was 0.59. Also, the microsomal CLint at 1 μM worked out at 4.7 µL/min/mg in data set [8] (human, pooled human liver microsomes) and 34 µL/min/mg in data set [10] (mouse, pooled mouse liver microsomes). In addition, the “in vivo efficacy in the P. berghei model (in words)” value in [9] is listed as “suppresses parasites in vivo”. The “in vitro clearance class” value in data set [10] (mouse microsomes) was “intermediate”.

For the compound `Cc1nc(Nc2n[nH]cc2C#N)c2nc[nH]c2n1` [Compound 15, 3-(2-Methyl-9H-purin-6-ylamino)-1H-pyrazole-4-carbonitrile], in data set [1], the IC50 is more than 100 µM and the “PfDHODH activity (in words)” value was “inactive”.

`Cc1cc(Nc2ccc3ccccc3c2)n2nccc2n1` [Compound 8, 5-Methyl-N-(naphthalen-2-yl)pyrazolo[1,5-a]pyrimidin-7-amine]: the “fold less potent” value in data set [1] was ~ 8.5 fold.

For the compound `Cc1cc(Nc2ccc3ccccc3c2)c2nncn2n1` [Compound 11, 6-Methyl-N-(naphthalen-2-yl)-[1,2,4]triazolo[4,3-b]pyridazin-8-amine], in [1], the IC50 was more than 50 µM and the “PfDHODH activity (in words)” value is reported as “inactivated”.
